Measured values: patent publication US11110098B2, “Methods and medicaments for the treatment of renal cell carcinoma” (University of Kansas, priority 2017, dated 2021)

How the values were obtained:
[1] = type: in vivo; conditions: OPC31260 30 and 60 mg/Kg, daily intraperitoneal, 28 days
Procedure: (§1) Female Athymic Nude-Foxn1^nu mice (Nu/Nu mice), 7-8 weeks old and weighing ˜25 g were procured from Envigo/Harlan. All animal studies were carried out according to the protocols approved by the University of Kansas Medical Center Institutional Animal Care and Use Committee. Mice were subcutaneously injected on the right flank region with 1×10^6 Caki-1 cells in 100 μl of DMEM medium. One week after injection, palpable tumors appeared and tumor volume was measured with calipers following the formula, Tumor volume=(length×width)/2. Once the tumor volume reached ˜80-100 mm^3, mice were randomized into sub-groups based on the tumor volume. Animals were administered vehicle, OPC31260 (30 mg/Kg BWt.), OPC31260 (60 mg/Kg BWt) or dDAVP (1 μg/Kg BWt.) and vehicle (saline) by daily intraperitoneal injection, or tolvaptan (120 mg/Kg BWt. in 1% aqueous solution of hydroxypropyl methylcellulose-dose derived from previous study^31) or vehicle by daily oral gavage for 28 days. Body weights and tumor volumes were measured every alternate day. At the end of the study, mice were injected with BRDU (100 mg/Kg BWt. by IP) 90 minutes before sacrifice. Tumors were harvested, photographed and weighed. Tumors were flash frozen or paraffin embedded for further analysis.

Caki-1 cells [2] = assay: Cell cycle analysis (propidium iodide, FACS), Caki-1 cells; type: cell-based, human; conditions: 24 h, 10 μM or higher doses
Procedure: 786-O and Caki-1 cells were incubated for 24 h with 0, 1, 5, 10, 25 or 50 μM of OPC31260, and stained with propidium iodide for analysis by flow cytometry. Cells were rinsed with PBS and trypsinized, and washed twice with PBS. Single-cell suspensions were fixed using pre-chilled 70% ethanol overnight, and subsequently permeabilized with PBS containing 0.1% Triton X-100, 1 mg/ml propidium iodide (Sigma-Aldrich) and 2 mg/ml DNase-free RNase at room temperature. Flow cytometry was done with a FACS Calibur analyzer (Becton Dickinson, Mountain, View, Calif.), capturing 10,000 events for each sample. Results were analyzed with ModFit LT™ software (Verity Software House, Topsham, Me.).

Caki-1 cells [3] = assay: Caki-1 xenograft tumor growth in nude mice; type: in vivo, Nu/Nu mice; conditions: OPC31260 30 and 60 mg/Kg
Procedure: as §1, with “One week after injection, palpable tumors appeared and tumor volume was measured with calipers following the formula, Tumor volume=(length×width)/2.” left out

Caki-1 cells [4] = assay: Clonogenic assay, Caki-1 cells; type: cell-based, human; conditions: 48 h treatment, 10 days growth
Procedure: (§2) 786-O and Caki-1 cells were plated at very low density (1,000 cells/well) in six-well plates. After 16 h, cells were treated with different doses of OPC31260 and incubated for 48 h. Cells were washed and grown for 10 days until visible colonies formed. Colonies were fixed with 4% paraformaldehyde in PBS, stained with 0.25% crystal violet in 25% methanol, washed, air-dried and photographed. Crystal violet was dissolved in sodium citrate buffer (0.1M, 50% ethanol, pH 4.2) and absorbance was recorded at 590 nm.

786-O cells = assay: Clonogenic assay, 786-O cells; type: cell-based, human; conditions: 48 h treatment, 10 days growth
Procedure: as §2

Caki-1 cells [5] = assay: Immunostaining of xenograft tumor sections (Ki-67, BRDU, CD31); type: in vivo, Nu/Nu mice; conditions: OPC31260 IP, tolvaptan 120 mg/Kg oral, dDAVP 1 μg/Kg IP, daily 28 days
Procedure: as §1
Tumor tissues were fixed overnight in 4% paraformaldehyde, dehydrated in a graded alcohol series, and embedded in paraffin for histological analysis as previously described^26. Slides with 5 μm tissue sections were heated in a steamer for 20 min in citrate buffer (pH 6.0) to unmask antigens. Slides were further blocked with 10% goat serum (Invitrogen) and then incubated overnight with primary antibody (V2R, CD31, BRDU, Ki67 and p-H3). After washing the slides with PBST, slides were incubated with appropriate fluorescence-labeled secondary antibody (Invitrogen) and streptavidin HRP conjugated (Invitrogen) secondary antibody for immunoflurorescence and immunohistochemistry, respectively. Slides were also incubated in 4′,6-diamidino-2-phenylindole to visualize nuclei. For immunofluorescence staining, slides were mounted with Fluoromount G (Southern Biotech). For immunohistochemistry, slides were developed with DAB (Vector Laboratories) and counterstained with Harris haematoxylin, dehydrated, and mounted with Permount (Fisher Scientific, Waltham, Mass.). All images were captured using a Nikon 80i microscope (Tokyo, Japan) at the KUMC Imaging Center.

Structure (SMILES): Cc1ccccc1C(=O)Nc1ccc(C(=O)N2CCCC(N(C)C)c3ccccc32)cc1 (stereo not shown) [OPC31260, 5-(dimethylamino)-1-[4-(2-methylbenzamido)benzoyl]-2,3,4,5-tetrahydro-1H-benzazepine]
- body weight of the mice [1]: did not significantly change
- urine osmolality [1]: reduced urine osmolality in a dose dependent manner
- cells in G2/M phase (Caki-1 cells [2]): 60-70%
- tumor volume (Caki-1 cells [3]; daily intraperitoneal injections, 28 days): failed to show a significant increase
- tumors at sacrifice versus vehicle (tumor weights, FIG. 2) (Caki-1 cells [3]; daily intraperitoneal, after 28 days): significantly smaller than in the vehicle treatment group
- dose from which a significant decline in colony formation was observed (Caki-1 cells [4]): 10 µM
- dose from which a significant decline in colony formation was observed (786-O cells): 5 µM
- BRDU staining / incorporation of tumors compared to vehicle (Caki-1 cells [5]): significantly reduced
- Ki-67 staining of tumors compared to vehicle (Caki-1 cells [5]): significantly reduced
- tumor micro-vessel density (CD31 staining) (Caki-1 cells [5]): significantly reduced
